One assay has as its target T1, tankyrase 1 (TNKS 1) (Homo sapiens, UniProt O95271).
T1 construct: 1,024-1,327aa; made in house; host or cells: cell-free protein synthesis system
Nature of the assay: Tankyrase inhibitory activity test (ELISA, self-polyADP ribosylation), tankyrase 1. Format: biochemical. The settings on record: tankyrase 1, ELISA, self-polyADP ribosylation; read-out: TNKS1 inhibitory activity (IC50 class). Here is the method:
(§1) (Test Example 1) Tankyrase Inhibitory Activity Test
(§2) For each of the compounds obtained in Examples (the test target compounds), the tankyrase inhibitory activity (an inhibitory activity against tankyrase 1 (TNKS 1) and an inhibitory activity against tankyrase 2 (TNKS 2)) was evaluated by measuring the enzymatic activity of tankyrase 1 and the enzymatic activity of tankyrase 2 by the ELISA technique using self-polyADP ribosylation as an index. First, Flag-tag fusion tankyrase 1 (1,024-1,327aa, SAM+PARP) and tankyrase 2 (613-1, 116aa, ANK5+SAM+PARP) were each synthesized by a cell-free protein synthesis system and diluted with a Tris buffer (50 mM Tris-HCl (pH 8.0), 150 mM NaCl, 10% glycerol). Then, 50 μL of the diluted tankyrase 1 or tankyrase 2 was added to a plate on which the anti-FLAGM 2 monoclonal antibody was immobilized (Anti-FLAG high sensitivity M2 coated plate) (SIGMA Corporation), and was allowed to stand at 4° C. overnight. Thereafter, the plate was washed four times with a PBS buffer containing 0.1% Triton X-100 (PBST buffer).
(§3) Subsequently, the test target compound diluted with an assay buffer (50 mM Tris-HCl (pH 8.0), 4 mM MgCl2, 0.2 mM DTT) (using DMSO as a control) was added to each well of the plate and was allowed to stand at room temperature for 10 minutes. Thereafter, a biotin-labeled NAD solution (225 μM NAD, 25 μM 6-Biotin-17-NAD (Trevigen Inc.)) was added as a donor substrate and mixed with the resultant test target compound, and the reaction was allowed to proceed at 30° C. for 45 minutes. Instead of the biotin-labeled NAD solution, distilled water was added to blank wells. After the reaction, the plate was washed four times with the PBST buffer. Thereafter, HRP (horseradish peroxidase)-labeled streptavidin (Trevigen Inc.) diluted 1,000-fold with the PBS buffer was added to each well, and the reaction was allowed to proceed at room temperature for 20 minutes. After the plate was washed four times with the PBST buffer, a chemiluminescent substrate solution TACS-Sapphire (Trevigen Inc.) was added to each well and the reaction was allowed to proceed at room temperature for 20 minutes. Then, the chemiluminescence intensity was measured using a chemiluminescence measuring apparatus.
(§4) The residual enzyme activity in the presence of the test target compound was determined in accordance with the following formula. Based on the residual enzyme activity at multiple concentrations of the test target compound, an enzyme inhibition activity was calculated as a 50% inhibitory concentration (IC50 value) using data analysis software named Origin (LightStone Corp.).
In general terms: An ELISA detects its analyte on a solid surface through an enzyme-linked reagent.

For a further assay, the target named is T2, tankyrase 2 (TNKS 2) (Homo sapiens, UniProt Q9H2K2).
T2 construct: 613-1, 116aa; made in house; host or cells: cell-free protein synthesis system
T2 sequence (Q9H2K2 613-1166): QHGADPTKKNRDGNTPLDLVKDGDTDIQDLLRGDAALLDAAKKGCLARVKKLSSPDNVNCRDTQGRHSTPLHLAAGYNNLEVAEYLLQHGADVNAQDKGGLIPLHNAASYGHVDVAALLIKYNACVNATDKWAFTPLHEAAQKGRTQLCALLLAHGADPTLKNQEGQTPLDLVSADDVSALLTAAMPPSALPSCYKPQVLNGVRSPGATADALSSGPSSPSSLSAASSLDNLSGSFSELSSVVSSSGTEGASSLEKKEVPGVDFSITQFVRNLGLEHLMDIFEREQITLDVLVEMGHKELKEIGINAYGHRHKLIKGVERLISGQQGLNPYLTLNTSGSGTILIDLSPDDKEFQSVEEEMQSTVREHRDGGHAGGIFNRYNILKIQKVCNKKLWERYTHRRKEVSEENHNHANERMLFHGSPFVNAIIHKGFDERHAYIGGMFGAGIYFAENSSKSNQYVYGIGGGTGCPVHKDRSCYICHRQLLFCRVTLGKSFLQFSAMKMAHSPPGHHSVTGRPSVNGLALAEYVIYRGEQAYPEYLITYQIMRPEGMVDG
Nature of the assay: Tankyrase inhibitory activity test (ELISA, self-polyADP ribosylation), tankyrase 2. The conditions noted are these: tankyrase 2, ELISA, self-polyADP ribosylation; read-out: TNKS2 inhibitory activity (IC50 class). Format: biochemical. The procedure: as §1, §2, §3, §4

The test system of assay [1] is human colorectal cancer cell line, COLO-320DM. Nature of the assay: Cell proliferation inhibitory activity test (Celltiter-Glo Luminescent Cell Viability Assay). Format: cell-based. The settings on record: COLO-320DM cells, 96 hours, read-out: COLO-320 DM cell proliferation inhibitory activity (GI50 class). The procedure:
(Test Example 2) Cell Proliferation Inhibitory Activity Test
The cell proliferation inhibitory activity of the compound obtained in each of Examples against human colorectal cancer cell line, COLO-320DM was evaluated by Celltiter-Glo Luminescent Cell Viability Assay (Promega Corporation, G7573). The COLO-320 DM cells were cultured in a RPMI-1640 medium (Wako Pure Chemical Industries, Ltd., 189-02025) containing 10% fetal bovine serum and 2 mM of glutamine. The cultured cells were washed with PBS and then detached with trypsin/EDTA to prepare a cell solution containing 3×10^4 cells/mL.
Next, the cell solution was seeded in a 96 well microplate (Thermo/Nunc, 136101) in an amount of 70 μL/well and was cultured overnight under conditions at 37° C. with 5% CO2. On the next day, 10 μL/well of a solution in which the test target compound (DMSO solution) was diluted with the cell culture medium (a final DMSO concentration of 1%) was added and the reaction was allowed to proceed under conditions at 37° C. with 5% CO2 for 96 hours (a 1% DMSO solution was used as a control). Subsequently, 80 μL/well of Celltiter-Glo Luminescent Cell Viability Assay reagent (Promega Corporation, G7573) was added, followed by agitation for 2 minutes with a shaker under shielding with aluminum foil. Thereafter, the resultant solution was allowed to stand for reaction at room temperature for 10 minutes.
After that, the luminescent signal was measured with a luminometer (Biotech, Synergy). The cell proliferation inhibitory activity was evaluated by obtaining a percentage of a cell proliferation volume of each compound-added group with respect to a cell proliferation volume (100%) of a control group in which no test target component solution was added, and calculating a value of compound concentration (GI50) required to reduce the remaining cell volume to 50% of the remaining cell volume of the control. […] The results are shown in Tables 120 to 123 together with the results of the tankyrase inhibition activity test.
On the technique in general: In ATP-based viability assays light output follows the ATP content of the culture.

Structures are written as SMILES.

The IC50 is the midpoint of a concentration-inhibition curve.

T1 sequence (O95271 1024-1327): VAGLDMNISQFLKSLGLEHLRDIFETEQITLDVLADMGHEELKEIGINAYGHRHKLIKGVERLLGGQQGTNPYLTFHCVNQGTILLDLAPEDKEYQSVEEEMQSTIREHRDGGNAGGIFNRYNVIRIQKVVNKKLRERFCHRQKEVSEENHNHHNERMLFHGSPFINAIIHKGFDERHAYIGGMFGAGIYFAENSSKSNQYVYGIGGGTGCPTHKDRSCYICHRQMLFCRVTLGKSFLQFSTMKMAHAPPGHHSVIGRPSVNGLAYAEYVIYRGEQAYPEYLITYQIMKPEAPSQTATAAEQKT

In the case of `O=C1N(Cc2cccnc2)c2cc(F)cc(F)c2C12CCN(c1nc3c(c(=O)[nH]1)CCCC3)CC2` [Example 333, 4,6-difluoro-1′-(4-oxo-3,4,5,6,7,8-hexahydro-quinazolin-2-yl)-1-(pyridin-3-ylmethyl) spiro[indoline-3,4′-piperidin]-2-one], the IC50 on tankyrase 1 (TNKS 1) and at tankyrase 2 (TNKS 2) was less than 0.02 µM throughout. Besides, the GI50 in assay [1] fell in the range of 0.1 to 0.6 µM.
Regarding `CN1C(=O)C2(CCN(c3nc4c(c(=O)[nH]3)CCCC4)CC2)c2c(Cl)cc(OCCCN3CCOCC3)cc21` [Example 334], the IC50 on tankyrase 1 (TNKS 1) and at tankyrase 2 (TNKS 2) was less than 0.02 µM each time. The GI50 in assay [1] lay in the range of 0.6 to 1 µM.
As for `CN1CC2(CCN(c3nc4c(c(=O)[nH]3)CCCN4C)CC2)c2c(F)cc(F)cc21` [Example 337, 2-(4,6-difluoro-1-methylspiro [indoline-3,4′-piperidin]-1′-yl)-8-methyl-5,6,7,8-tetrahy-dropyrido [2,3-d] pyrimidin-4(3H)-one], the IC50 at tankyrase 1 (TNKS 1) and at tankyrase 2 (TNKS 2) was less than 0.02 µM each time. In addition, the GI50 in assay [1] was in the range of 0.1 to 0.6 µM.
`CN1CCCc2c1nc(N1CCC3(CC1)CN(CCO)c1cc(F)cc(F)c13)[nH]c2=O` [Example 338, 2-[4,6-difluoro-1-(2-hydroxyethyl)spiro [indoline-3,4′-piperidin]-1′-yl]-8-methyl-5,6,7,8-tetrahydro-pyrido [2,3-d] pyrimidin-4(3H)-one]: the IC50 on tankyrase 1 (TNKS 1) was 0.02 to 0.2 µM; at tankyrase 2 (TNKS 2) it was less than 0.02 µM. In assay [1], the GI50 lay within 0.1 to 0.6 µM.
For `CN1CCCc2c1nc(N1CCC3(CC1)C(=O)N(C)c1cc(F)cc(F)c13)[nH]c2=O` [Example 339, 4,6-difluoro-1-methyl-1′-(8-methyl-4-oxo-3,4,5,6,7,8-hexahydro-pyrido[2,3-d]pyrimidin-2-yl)spiro [indoline-3,4′-piperidin]-2-one], in that order: less than 0.02 µM, less than 0.02 µM and 0.1 to 0.6 µM.
As to `CN1CCCc2c1nc(N1CCC3(CC1)C(=O)N(CCO)c1cc(F)cc(F)c13)[nH]c2=O` [Example 340, 4,6-difluoro-1-(2-hydroxyethyl)-1′-(8-methyl-4-oxo-3,4,5,6,7,8-hexahydro-pyrido[2,3-d]pyrimidin-2-yl)spiro [indoline-3,4′-piperidin]-2-one], the IC50 at tankyrase 1 (TNKS 1) and on tankyrase 2 (TNKS 2) was less than 0.02 µM in each case. Besides, the GI50 in assay [1] is 0.1 to 0.6 µM.
As to `O=c1[nH]c(N2CCC3(CC2)CN(Cc2ccccc2F)c2cc(F)cc(F)c23)nc2c1CCCC2` [Example 341, 2-[4,6-difluoro-1-(2-fluorobenzyl)spiro [indoline-3,4′-piperidin]-1′-yl]-5,6,7,8-tetrahy-droquinazolin-4(3H)-one], the IC50 at tankyrase 1 (TNKS 1) and at tankyrase 2 (TNKS 2) was 0.02 to 0.2 µM in each case. In addition, the GI50 in assay [1] is 0.6 to 1 µM.
Turning to `O=c1[nH]c(N2CCC3(CC2)CN(Cc2cccc(F)c2)c2cc(F)cc(F)c23)nc2c1CCCC2` [Example 342, 2-[4,6-difluoro-1-(3-fluorobenzyl)spiro [indoline-3,4′-piperidin]-1′-yl]-5,6,7,8-tetrahy-droquinazolin-4(3H)-one], the IC50 is 0.02 to 0.2 µM at tankyrase 1 (TNKS 1) and less than 0.02 µM at tankyrase 2 (TNKS 2). In assay [1], the GI50 was 0.6 to 1 µM.
The matching figures for `O=c1[nH]c(N2CCC3(CC2)CN(Cc2ccc(Cl)nc2)c2cc(F)cc(F)c23)nc2c1CCCC2` [Example 344, 2-{1-[(6-chloropyridin-3-yl)methyl]-4,6-di-fluorospiro[indoline-3,4′-piperidin]-1′-yl]-5,6,7,8-tetrahydroquin-azolin-4(3H)-one]: less than 0.02 µM, less than 0.02 µM and 0.1 to 0.6 µM.
For `Cn1ccc2c(=O)[nH]c(N3CCC4(CC3)CN(Cc3cccnc3)c3cc(F)cc(F)c34)nc21` [Example 347, 2-[4,6-difluoro-1-(pyridin-3-ylmethyl)spiro [indoline-3,4′-piperidine]-1′-yl]-7-methyl-3,7-dihydro-4H-pyrrolo [2,3-d]pyrimidin-4-one], in that order: 0.02 to 0.2 µM, 0.02 to 0.2 µM and 0.6 to 1 µM.
For `CN1CCCc2c1nc(N1CCC3(CC1)CN(Cc1cccnc1)c1cc(F)cc(F)c13)[nH]c2=O` [Example 351, 2-[4,6-difluoro-1-(pyridin-3-ylmethyl)spiro [indoline-3,4′-piperi-dine]-1′-yl]-8-methyl-5,6,7,8-tetrahydro pyrido [2,3-d]pyrimidin-4(3H)-one], in that order: 0.02 to 0.2 µM, less than 0.02 µM and 0.1 to 0.6 µM.
Take `CN1CCCc2c1nc(N1CCC3(CC1)C(=O)N(C)c1cc(O)cc(F)c13)[nH]c2=O` [Example 354, 4-fluoro-6-hydroxy-1-methyl-1′-(8-methyl-4-oxo-3,4,5,6,7,8-hexahydropyrido [2,3-d]pyrimidin-2-yl) spiro[indoline-3,4′-piperidin]-2-one]: the IC50 at tankyrase 1 (TNKS 1) and on tankyrase 2 (TNKS 2) was less than 0.02 µM each time. The GI50 in assay [1] was in the range of 0.1 to 0.6 µM.
`CN1CCCc2c1nc(N1CCC3(CC1)C(=O)N(C)c1cc(OCCO)cc(F)c13)[nH]c2=O` [Example 356, 4-fluoro-6-(2-hydroxy-ethoxy)-1-methyl-1′-(8-methyl-4-oxo-3,4,5,6,7,8-hexahydro-pyrido[2,3-d]pyrimidin-2-yl) spiro [indoline-3,4′-piperidin]-2-one]: the IC50 at tankyrase 1 (TNKS 1) and at tankyrase 2 (TNKS 2) was less than 0.02 µM each time. The GI50 in assay [1] is 0.1 to 0.6 µM.
For `CN(C)CCOc1cc(F)c2c(c1)N(C)C(=O)C21CCN(c2nc3c(c(=O)[nH]2)CCCN3C)CC1` [Example 357, 6-[2-(dimethylamino)ethoxy]-4-fluoro-1-methyl-1′-(8-methyl-4-oxo-3,4,5,6,7,8-hexa-hydropyrido [2,3-d]pyrimidin-2-yl) spiro[indoline-3,4′-piperidin]-2-one], the IC50 at tankyrase 1 (TNKS 1) and on tankyrase 2 (TNKS 2) was less than 0.02 µM each time. The GI50 in assay [1] is 0.6 to 1 µM.
As for `CN1CCCc2c1nc(N1CCC3(CC1)C(=O)N(C)c1cc(OCCN4CCOCC4)cc(F)c13)[nH]c2=O` [Example 360, 4-fluoro-1-methyl-1′-(8-methyl-4-oxo-3,4,5,6,7,8-hexahydropy-rido[2,3-d]pyrimidin-2-yl)-6-(2-morpho-linoethoxy) spiro [indoline-3,4′-piperidin]-2-one], the IC50 on tankyrase 1 (TNKS 1) and at tankyrase 2 (TNKS 2) was less than 0.02 µM in each case. Further, the GI50 in assay [1] lay within 0.1 to 0.6 µM.
On to `CN1CCCc2c1nc(N1CCC3(CC1)C(=O)N(C)c1cc(OCCN4CCS(=O)(=O)CC4)cc(F)c13)[nH]c2=O` [Example 361, 6-[2-(1,1-dioxidothio-morpholino)ethoxy]-4-fluoro-1-methyl-1′-(8-methyl-4-oxo-3,4,5,6,7,8-hexahydropy-rido[2,3-d]pyrimidin-2-yl)spiro [indoline-3,4′-piperidin]-2-one], for which the IC50 on tankyrase 1 (TNKS 1) and on tankyrase 2 (TNKS 2) was less than 0.02 µM each time. In addition, the GI50 in assay [1] is 0.6 to 1 µM.

(Values after US11414429B2, “Compound or pharmaceutically acceptable salt thereof” (RIKEN, priority 2016, dated 2022).)
